Patent US20260183297A1, “SELECTION OF PATIENTS FOR THE TREATMENT OF FADS1-MEDIATED DISEASES OR DISORDERS USING FADS-1 INHIBITORS” (AMGEN INC., priority 2022, published 2026)
Read-outs that look alike come from different tables or passages of the source.

Key:
FADS1 [1] = molecular target: T1, FADS1 (Mus musculus, UniProt Q920L1); experiment: In vivo FADS1 activity measurement using the liver (13C5-DGLA to 13C5-AA conversion); settings: DIO mice, single oral dose 30 mg/kg, 24 hours after dosing; for inhibition at 30 mg/kg: mouse, read-out: Liver Avg % Inhibition
T1 construct: Liver from ^13C5-DGLA dosed DIO mice was collected for pharmacodynamic (PD) analysis; from tissue; host or cells: living DIO C57Bl/6 mice; 13C5-DGLA to 13C5-AA conversion read in liver (A4) or blood plasma (A5)
T1 sequence (Q920L1 1-447): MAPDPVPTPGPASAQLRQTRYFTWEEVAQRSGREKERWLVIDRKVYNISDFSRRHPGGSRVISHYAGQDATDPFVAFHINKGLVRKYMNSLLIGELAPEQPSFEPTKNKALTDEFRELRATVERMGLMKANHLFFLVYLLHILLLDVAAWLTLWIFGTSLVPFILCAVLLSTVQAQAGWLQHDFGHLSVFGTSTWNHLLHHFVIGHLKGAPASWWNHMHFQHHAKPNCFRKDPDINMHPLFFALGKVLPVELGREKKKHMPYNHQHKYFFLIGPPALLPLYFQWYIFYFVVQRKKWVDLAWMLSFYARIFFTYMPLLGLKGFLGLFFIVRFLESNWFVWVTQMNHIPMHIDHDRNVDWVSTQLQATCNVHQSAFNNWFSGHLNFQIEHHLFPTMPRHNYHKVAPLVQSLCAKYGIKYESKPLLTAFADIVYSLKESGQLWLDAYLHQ
Protocol: Mice were then dosed by intraperitoneal injection with a solution comprising of a mixture of 0.1 ml solution of ^13C5-DGLA (2 mM in 18.42 mM Na2CO3 buffer). Necropsy were performed at 30 minutes post ^13C5-DGLA dosing. Liver from ^13C5-DGLA dosed DIO mice was collected for pharmacodynamic (PD) analysis and EDTA plasma was collected for compound exposure determination. For PD analysis, 150 mg of frozen liver tissue were premixed with ALA-D14 as an internal standard. Liver samples were homogenized and extracted twice with chloroform/methanol (2:1) solution. The organic phases for the two extractions were pooled and evaporated to dryness under nitrogen gas. The liver extract was resuspended in 200 μl 2N NaOH and saponified at 65° C. for 1 hour. After cooling to room temperature, 100 μl of formic acid was added and the mixture was subjected to two consecutive extractions with a chloroform:methanol (2:1) solution. The pooled organic phases were evaporated to dryness under nitrogen gas and resuspended in a solution containing acetonitrile and methanol at a ratio of 1:1. The extracts were then analyzed by LC/MS/MS for the following analytes: ^13C5-DGLA, ^13C5-AA, with ALA-d14 as the internal standard. The sample (20 μl) was injected onto a Poroshell 120 EC-C18 3.0×50 mm, 1.9 μm id column (Agilent, Santa Clara, CA). The analyte peak areas were quantified using the Analyst software (SCIEX, Framingham, […]). The residual in vivo FADS1 activity was calculated by taking the percent of substrate to product conversion normalized to the vehicle group to determine the percent of control (POC) and the percent inhibition relative to control (vehicle).
To determine the degree of FADS1 inhibition, the in vivo FADS1 activity as the percent of conversion calculated using the following equation: […]
The data were then normalized to the vehicle group to determine the percent of inhibition relative to control (vehicle) by the following equation: […]
To calculate the in vivo potency, dose response graphs were generated by plotting the plasma concentration of the test compound determined from the PK analysis on the abscissa, against the percent of control (POC, relative to vehicle) of the FADS1 activity for each mouse. The data points were then fitted by using the log(inhibitor) vs response nonlinear regression algorithm using GraphPad Prism (version 8.4.3, San Diego CA) to calculate the in vivo IC50 (total).
Free (unbound) IC50 and IC90 values were calculated by first calculating the unbound compound concentration in the plasma by multiplying the plasma concentration of test compound with the fraction unbound (fu) value in mouse plasma determined in the plasma protein binding study. A dose response curve was used to determine the unbound IC50 and IC90 by plotting the unbound plasma concentration of the compound on the abscissa, against the percent of control (POC, relative to vehicle) of FADS1 activity for each mouse. The data points were then fitted with a log (inhibitor) versus response nonlinear regression algorithm using GraphPad Prism (version 8.4.3, San Diego, CA) to calculate the in vivo IC50 (Free).

FADS1 [2] = molecular target: T1, FADS1; experiment: In vivo FADS1 activity measurement using blood plasma (13C5-DGLA to 13C5-AA conversion); settings: for Plasma Avg % Conversion / inhibition at 30 mg/kg: DIO mice, single oral dose 30 mg/kg, 24 hours after dosing
Protocol: FADS1 activity in the presence of Compounds B-E was also measured using blood plasma (in addition to using the liver). The above procedures were perforned to measure the in vivo activity of FADS1 using the liver. The following general procedures were used to measure FADS1 activity using blood plasma. Diet-induced obese (DIO) mice that were on 12 weeks of high fat diet were used to determine the pharmacokinetic (PK) and pharmacodynamic (PD) properties of test compounds. To determine the target coverage at 24 hours after dosing with a test compound (e.g., Compounds B-E, shown below), mice were IP dosed with 0.1 ml solution of ^13C5-DGLA (2 mM in 18.42 mM Na2CO3 buffer). Necropsy were performed at 30 minutes post ^13C5-DGLA dosing. EDTA Plasma was collected for PK and PD analysis.
For PD analysis, 50 μl of plasma or standards (pooled untreated mouse plasma with ^13C5-DGLA and ^13C5-AA added at concentration of 4.57 nM to 10 uM) were mixed with 10 μl of 90% methanol and 10 μl of 50 μg/mL of ALA-D14 as an internal standard (100 μM alpha-linolenic acid-d14 (ALA-d14, Cayman Chemical)) in a 96 well plate. 490 μl of chloroform:methanol (2:1) were added to each well. Plates were plated on a shaker for 5 min prior to adding 66.5 μl water. The plates were shaken for another 5 minutes, followed by centrifugation at 2000 RPM for 5 minutes. The bottom organic layer was transferred to a clean 96 well plate. 333 ul of chloroform:methanol (2:1) were added to the to the remaining liquid phase in the original plate. After 5 min of shaking, the plate was centrifuged at 2000 RPM for 5 minutes. The bottom layer was collected and combined with the first bottom layer. The combined layers were evaporated to dryness under a constant stream of nitrogen gas. After the plate has been dried, 100 μl of 2N NaOH was added to the mixture for subsequent saponification at 65° C. for 1 hour. The samples were then cooled to room temperature and the mixture was then acidified with 50 μl of formic acid followed by two consecutive chloroform:methanol (2:1) extractions. 500 μl of Chloroform:methanol (2:1) was added and the mixture thoroughly mixed by shaking. The plate was then centrifuged at 2,000 rpm for 5 min. The bottom chloroform phase was transferred to a new 2 mL 96 well plate and the remaining aqueous layer was extracted with another 250 μl of chloroform:methanol (2:1). The organic extracts were combined, and the solvent was evaporated to dryness by placing the plate under nitrogen. Extracts were then dissolved in 200 μl of acetonitrile/methanol (1:1). The plate was placed on a shaker for 30 minutes to ensure thorough mixing and dissolution of the extracted fatty acids. The plate was then centrifuged at 2000 RPM for 5 minutes. 80 μl of the samples were transferred to a new 96 well polypropylene plate for analysis on a LC-MS/MS for the following analytes: ^13C5-DGLA, ^13C5-AA, with ALA-d14 as the internal standard. Briefly describing the LC-MS/MS method: 20 μl of sample was injected onto a Poroshell 120 EC-C18 3.0×50 mm, 1.9 μm id column. Mobile phases were 80% acetonitrile containing 5 mM ammonium acetate for mobile phase A and 99.5% acetonitrile containing 5 mM ammonium acetate for mobile phase B. The LC gradient was a 3 min long method at a flow rate of 0.4 mL/minute consisting of 45% B at 0 to 0.5 min, followed by a 45% B to 100% B from 0.5 to 2.0 min; the system was then maintained at 100% B from 2.0 min to 2.5 min and returned to 45% B at 2.6 min and maintained until end of the method. The analyte peak areas were quantified by using the SCIEX Analyst software. To determine the degree of FADS1 inhibition, the in vivo FADS1 activity, POC, percent of inhibition, and in vivo IC50 values are calculated as described above for liver FADS1 activity measurement.

[3] = HFD-fed DIO C57BL/6J mice; cited from earlier work
[4] = C57BL/6 DIO mice; cited from earlier work

SMILES | Liver Avg % Conversion (FADS1 [1]) [%] | inhibition at 30 mg/kg (FADS1 [1]) [%] | Plasma Avg % Conversion (FADS1 [2]) [%] | inhibition at 30 mg/kg (FADS1 [2]; mouse) [%] | further results
O=c1c(-c2cnn(CC(F)(F)C(F)(F)F)c2)c(C(F)(F)F)nc2cc(OCF)ccn12 [Compound F] |  |  |  |  | Free (unbound) in vivo IC95 (FADS1 [2]; blood plasma, unbound plasma concentration): 16.4 nM; IC50 (FADS1 [2]; blood plasma, unbound plasma concentration, read-out: Free (unbound) in vivo IC50): 5.62 nM; IC90 (FADS1 [2]; mouse, blood plasma, unbound plasma concentration, read-out: Free (unbound) in vivo IC90): 12.4 nM
COc1ccc2c(c1)c(CC(=O)O)c(C)n2C(=O)c1ccc(Cl)cc1 [indomethacin] |  |  |  |  | body weight [3]: reduce body weight; insulin sensitivity [3]: improve insulin sensitivity
Cc1c(C(=O)NN2CCCCC2)nn(-c2ccc(Cl)cc2Cl)c1-c1ccc(Cl)cc1 [rimonabant] |  |  |  |  | adipose tissue inflammation [4]: reduced adipose tissue inflammation; body weight [4]: reduce body weight; physical activity [4]: increased physical activity only in the light cycle

Continued, in another order:

Liver Avg % Conversion (FADS1 [1]) [%] | inhibition at 30 mg/kg (FADS1 [1]) [%] | Plasma Avg % Conversion (FADS1 [2]) [%] | inhibition at 30 mg/kg (FADS1 [2]; mouse) [%] | SMILES | further results
34.5 | 58.7 | 25.1 | 58.3 | O=c1c(-c2ccc(OCC(F)(F)F)cc2)c(C(F)(F)F)nc2cc(CO)ccn12 [Compound D] | 
78.7 | 5.8 | 58.1 | 3.7 | COc1ccn2c(=O)c(-c3ccc(O[C@H](C)C#N)cc3)c(C(F)(F)F)nc2n1 [Compound E] | 
